One assay relates to mycobacteria. Conditions: reported in the literature; cited from earlier work.
In assay [1] the target is M. smegmatis DprE1 protein (Mycolicibacterium smegmatis, UniProt A0R607). The assay can be described thus: fluorescence labeling of purified DprE1 protein by dye-DNB analogues in the presence of M. smegmatis lysate. The assay is classed as biochemical. Conditions: for covalent fluorescence labeling of DprE1 protein: 10 μM probe, in the presence of M. smegmatis lysate.
A further assay relates to M. smegmatis. Conditions: 10 μM, room temperature, 1 h, washed.
In assay [2] the test system is E. coli expressing TEM1-β-lactamase. In kind it is cell-based.
Assay [3] relates to BCG. The assay is classed as cell-based, Mycobacterium bovis. The conditions noted are these: 10 μM, room temperature, 1 h, washed.
For assay [4], the system named is Mycobacterium tuberculosis H37Rv. In kind it is cell-based.
Assay [5] concerns BCG. In kind it is cell-based, Mycobacterium bovis. Conditions: 10 μM, no washing.
Assay [6] relates to patients' clinical sputum samples. The assay can be described thus: staining of patients' processed sputum samples. The conditions noted are these: 10 μM, 1 h, room temperature. The assay is classed as cell-based. The protocol: FIG. 15 is a series of digital fluorescence confocal microscope images of CDG-DNB2 stained patients' processed sputum samples. Processed sputum samples were centrifuged and resuspended in 10 μM CDG-DNB2 for 1 h at room temperature. Cells were pelleted and washed stringently 3 times with PBS before fixation with 10% formalin for 30 min. Cells were further visualized using a confocal microscope at 20× or 60×/Ex 490-Em520.
Clinical study with CDG-DNB2: Probe CDG-DNB2 has been evaluated in patients' clinical sputum samples: 4 positive and 4 negative samples.

Each structure is given as a SMILES string. “Also recorded” adds a separate entry of the source.

Sequence of M. smegmatis DprE1 protein (A0R607 whole entry): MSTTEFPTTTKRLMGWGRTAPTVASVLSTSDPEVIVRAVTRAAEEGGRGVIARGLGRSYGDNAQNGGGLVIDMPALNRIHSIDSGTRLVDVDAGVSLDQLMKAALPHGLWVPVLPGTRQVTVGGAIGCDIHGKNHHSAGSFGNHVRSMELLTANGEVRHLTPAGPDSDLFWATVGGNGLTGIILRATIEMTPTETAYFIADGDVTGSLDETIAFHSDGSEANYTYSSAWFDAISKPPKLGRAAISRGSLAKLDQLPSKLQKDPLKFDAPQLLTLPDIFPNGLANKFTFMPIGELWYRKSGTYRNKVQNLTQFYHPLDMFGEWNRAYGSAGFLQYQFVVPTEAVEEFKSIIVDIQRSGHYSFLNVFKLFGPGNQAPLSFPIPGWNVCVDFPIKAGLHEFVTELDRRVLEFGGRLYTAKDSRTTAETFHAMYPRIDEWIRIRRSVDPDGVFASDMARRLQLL

For `C[C@H]1COC2(CCN(c3nc(=O)c4cc(C(F)(F)F)cc([N+](=O)[O-])c4s3)CC2)O1` [BTZ043], the antimycobacterial activity result in the assay with mycobacteria is given as “potent antimycobacterial agents”.
For the compound `Cc1cc(OCCn2cc(CNC(=O)c3cc([N+](=O)[O-])cc([N+](=O)[O-])c3)nn2)ccc1-c1c2ccc(=O)cc-2oc2cc(O)ccc12` [TG-DNB1], the “covalent fluorescence labeling of DprE1 protein” value in assay [1] is “significantly higher labeling capability than did the two mononitro compounds; also recorded: a fluorescent band was observed”.
Regarding `Cc1cc(OCCNC(=O)c2cc([N+](=O)[O-])cc([N+](=O)[O-])c2)ccc1-c1c2ccc(=O)cc-2oc2cc(O)ccc12` [TG-DNB2], the “covalent fluorescence labeling of DprE1 protein” value in assay [1] was “significantly higher labeling capability than did the two mononitro compounds; also recorded: a fluorescent band was observed”.
For `COc1ccc(-c2c3ccc(=O)cc-3oc3cc(OCc4ccc(OCC5=C(C(=O)O)N6C(=O)[C@@H](NC(=O)Cc7ccccc7)[C@H]6SC5)cc4)ccc23)c(C)c1` [CDG-1], the “trapping of fluorescence signal in or on M. smegmatis cells” value with M. smegmatis is on record as “cannot be trapped in or on the cells”.
In the case of `Cc1cc(OCCNC(=O)c2cc([N+](=O)[O-])cc([N+](=O)[O-])c2)ccc1-c1c2ccc(=O)cc-2oc2cc(OCc3ccc(OCC4=C(C(=O)O)N5C(=O)[C@@H](NC(=O)Cc6ccccc6)[C@H]5SC45CC5)cc3)ccc12` [CDG-DNB2], in assay [2], the “hydrolysis of probe by TEM1 β-lactamase-transformed E. coli” value is “can hydrolyze CDG-DNB2 and generate the uncaged fluorescent signal”; the “retention of fluorescence in TEM1 β-lactamase-transformed E. coli” value was “cannot retain the fluorescence”. Also, in the assay on BCG [3], the “staining of BCG (confocal)” value is recorded as “exhibited an intense (green) fluorescent signal”. In assay [4], the “fold increase of fluorescence intensity over control levels, H37Rv” value is recorded as “about 20 fold” and the “staining of H37Rv (confocal)” value was “exhibited an intense (green) fluorescent signal”. Besides, the “time at which prominent fluorescence was observed” value in the assay with BCG [5] (imaged every 2.5 min from 5 min) turned out to be 15 min. Further, in the assay on BCG [5] (time at which imaging was stopped), the “continuous enhancement of fluorescence till” value was 75 min. In assay [6] (4 negative samples), the “staining of negative sputum samples” value is listed as “all the negative samples had little background fluorescence”. The “staining of positive sputum samples” value in assay [6] (4 positive samples) is recorded as 4 positive samples all displayed green fluorescence-stained bacteria.
Turning to `COc1ccc(OCCNC(=O)c2cc([N+](=O)[O-])cc([N+](=O)[O-])c2)cc1` [DNB1, reference compound], the “DprE1 labeling by TG-DNB analogues after pre-incubation with DNB1” value in assay [1] (DprE1SM incubated with 50 μM DNB1 for one hour prior to addition of TG-DNB1) is “abolished the band”. Also, the antimycobacterial activity result in the assay on mycobacteria is recorded as “potent antimycobacterial agents”.
